Structures can show the parent of a compound that is named as a salt.
Key:
[1] = tested on: Phosphorylated Ribosomal Protein S6 (RPS6) in THP-1 cells; assay: THP-1 RPS6 ELISA Assay; type: cell-based; conditions: Homo sapiens; serum starved THP-1 cells, 2 hours with compound, 10 nM MCP-1 for 15 minutes, Phospho-RPS6 ELISA; read-out: PI3Kγ_THP1_RPS6_ELISA IC50
How it was run: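 Phospho-RPS6 in lysates measured by ELISA at 450 nm, corrected at 540 nm, after MCP-1 challenge (10 nM, 15 min) of THP-1 cells that were starved overnight and exposed to test compound for 2 h at 37° C, 2×10^5 cells/well. Curve fit of percent inhibition gives IC50.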

[2] = target: PI3Kδ (p110δ/p85α) Recombinant Human Protein (Homo sapiens (Human), UniProt O00329); assay: PI3Kδ Scintillation Proximity Assay; type: biochemical; conditions: 20 μM PIP2, 2 μM ATP, 3.4 nM PI3Kδ, 120 min, room temperature
How it was run: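 IC50 was fitted to percent solvent-control activity from SPA scintillation counts after WGA bead capture of 33P-labelled lipid product. Reaction: 120 min, room temperature, 3.4 nM p110δ/p85α, 20 μM PIP2, 2 μM ATP with tracer, MOPS pH 6.7 buffer containing MgCl2, DTT, CHAPS, 2% DMSO.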

[3] = target: PI3Kγ (p110γ) Recombinant Human Protein (Homo sapiens (Human), UniProt P48736); assay: PI3K-γ Scintillation Proximity Assay; type: biochemical; conditions: 20 μM PIP2, 2 μM ATP, 13 nM PI3Kγ, 120 min, room temperature
How it was run: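 Recombinant human p110γ (13 nM) phosphorylated 20 μM PIP2 with 2 μM ATP plus [γ-33P]ATP in 20 mM MOPS pH 6.7, 10 mM MgCl2, 5 mM DTT, 0.03% CHAPS, 2% DMSO, 120 min at room temperature. Radiolabelled product was captured on WGA SPA beads and counted. IC50 came from curves of percent solvent-control activity.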

Chain of PI3Kγ (p110γ) Recombinant Human Protein (P48736 whole entry): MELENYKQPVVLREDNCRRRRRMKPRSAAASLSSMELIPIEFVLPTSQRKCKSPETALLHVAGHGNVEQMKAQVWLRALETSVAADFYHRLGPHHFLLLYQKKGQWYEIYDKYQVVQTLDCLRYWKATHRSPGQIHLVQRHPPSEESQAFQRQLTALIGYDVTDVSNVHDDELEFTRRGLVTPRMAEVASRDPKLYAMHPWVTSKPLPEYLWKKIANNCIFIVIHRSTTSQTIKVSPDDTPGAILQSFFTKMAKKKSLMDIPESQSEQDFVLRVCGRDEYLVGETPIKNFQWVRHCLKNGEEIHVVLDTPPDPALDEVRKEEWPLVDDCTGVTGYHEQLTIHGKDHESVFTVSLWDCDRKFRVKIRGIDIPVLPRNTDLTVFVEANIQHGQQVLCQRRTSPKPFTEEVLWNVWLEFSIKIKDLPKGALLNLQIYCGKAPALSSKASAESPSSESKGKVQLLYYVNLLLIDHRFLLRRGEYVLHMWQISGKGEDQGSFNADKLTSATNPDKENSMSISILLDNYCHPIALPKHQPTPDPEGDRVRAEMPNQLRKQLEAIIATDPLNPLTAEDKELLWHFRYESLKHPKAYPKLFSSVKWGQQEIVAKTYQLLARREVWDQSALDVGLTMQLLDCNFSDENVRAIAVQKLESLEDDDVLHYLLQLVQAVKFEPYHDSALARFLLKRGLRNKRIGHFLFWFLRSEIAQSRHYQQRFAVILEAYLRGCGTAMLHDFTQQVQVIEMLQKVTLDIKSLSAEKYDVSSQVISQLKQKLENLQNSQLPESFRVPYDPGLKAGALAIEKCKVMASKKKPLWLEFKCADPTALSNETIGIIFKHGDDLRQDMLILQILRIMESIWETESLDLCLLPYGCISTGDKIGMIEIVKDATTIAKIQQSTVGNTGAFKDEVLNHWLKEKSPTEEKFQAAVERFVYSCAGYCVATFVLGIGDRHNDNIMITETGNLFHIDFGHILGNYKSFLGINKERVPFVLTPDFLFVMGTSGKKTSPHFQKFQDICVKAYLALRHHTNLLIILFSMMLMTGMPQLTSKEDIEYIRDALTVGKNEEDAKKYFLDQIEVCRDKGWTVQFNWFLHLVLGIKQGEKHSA
Chain of PI3Kδ (p110δ/p85α) Recombinant Human Protein (O00329 whole entry): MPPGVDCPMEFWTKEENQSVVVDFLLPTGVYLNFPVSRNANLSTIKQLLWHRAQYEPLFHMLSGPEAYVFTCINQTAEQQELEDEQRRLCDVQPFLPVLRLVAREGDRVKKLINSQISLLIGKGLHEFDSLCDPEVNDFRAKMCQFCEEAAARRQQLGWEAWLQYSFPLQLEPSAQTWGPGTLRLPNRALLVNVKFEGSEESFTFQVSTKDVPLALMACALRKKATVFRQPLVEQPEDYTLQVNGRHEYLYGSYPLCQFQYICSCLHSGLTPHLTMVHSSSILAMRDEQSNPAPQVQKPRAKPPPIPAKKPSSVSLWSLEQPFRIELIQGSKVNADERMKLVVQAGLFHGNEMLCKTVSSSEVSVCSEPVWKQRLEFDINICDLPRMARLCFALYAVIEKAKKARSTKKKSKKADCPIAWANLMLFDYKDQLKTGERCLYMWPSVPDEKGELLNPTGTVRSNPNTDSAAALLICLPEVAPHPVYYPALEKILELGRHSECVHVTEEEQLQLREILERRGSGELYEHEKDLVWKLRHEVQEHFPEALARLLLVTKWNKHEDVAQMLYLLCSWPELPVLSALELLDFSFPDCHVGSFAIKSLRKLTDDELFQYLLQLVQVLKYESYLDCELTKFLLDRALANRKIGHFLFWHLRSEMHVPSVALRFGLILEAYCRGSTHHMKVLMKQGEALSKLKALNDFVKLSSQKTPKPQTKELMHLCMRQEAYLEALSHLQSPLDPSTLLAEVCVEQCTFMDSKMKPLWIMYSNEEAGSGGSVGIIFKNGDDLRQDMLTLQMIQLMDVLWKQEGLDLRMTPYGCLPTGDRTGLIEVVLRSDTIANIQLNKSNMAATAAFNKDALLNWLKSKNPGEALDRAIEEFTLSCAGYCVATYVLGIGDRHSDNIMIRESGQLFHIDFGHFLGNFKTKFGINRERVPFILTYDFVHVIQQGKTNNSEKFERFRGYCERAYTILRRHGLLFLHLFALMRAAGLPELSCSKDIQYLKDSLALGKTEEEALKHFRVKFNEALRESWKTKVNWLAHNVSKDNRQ
Chain of PI3Kδ (p110δ/p85α) Recombinant Human Protein (P27986 whole entry partner): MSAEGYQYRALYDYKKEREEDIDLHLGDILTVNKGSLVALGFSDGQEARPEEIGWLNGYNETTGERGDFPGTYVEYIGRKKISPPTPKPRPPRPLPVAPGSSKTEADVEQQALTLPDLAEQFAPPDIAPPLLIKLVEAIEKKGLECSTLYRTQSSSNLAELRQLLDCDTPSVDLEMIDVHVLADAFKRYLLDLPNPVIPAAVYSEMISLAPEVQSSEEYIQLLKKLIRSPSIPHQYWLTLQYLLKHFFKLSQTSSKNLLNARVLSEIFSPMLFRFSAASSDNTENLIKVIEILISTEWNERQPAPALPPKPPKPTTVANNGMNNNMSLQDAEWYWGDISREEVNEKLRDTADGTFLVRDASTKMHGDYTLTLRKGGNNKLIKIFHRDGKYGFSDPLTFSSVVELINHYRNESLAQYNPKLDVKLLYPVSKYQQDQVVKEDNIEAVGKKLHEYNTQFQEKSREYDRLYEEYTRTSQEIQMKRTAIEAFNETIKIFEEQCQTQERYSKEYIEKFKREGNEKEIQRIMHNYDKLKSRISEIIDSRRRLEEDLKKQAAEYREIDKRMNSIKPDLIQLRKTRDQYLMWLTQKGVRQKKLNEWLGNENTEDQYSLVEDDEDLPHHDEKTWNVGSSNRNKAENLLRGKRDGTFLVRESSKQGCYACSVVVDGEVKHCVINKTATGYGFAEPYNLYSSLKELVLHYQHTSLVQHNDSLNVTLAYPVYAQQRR

Row | SMILES | IC50 [1] [nM] | IC50 [2] [nM] | IC50 [3] [nM]
1 | Cc1ccc(S(=O)(=O)NC23CCN(CC2)C3)cc1-c1cnc(N)c(-n2cccn2)n1 [Example 93, 3-(5-amino-6-(1H-pyrazol-1-yl)pyrazin-2-yl)-N-(1-azabicyclo[2.2.1]heptan-4-yl)-4-methylbenzenesulfonamide] | ≤ 100 | ≤ 100 | ≤ 100
2 | Cc1ccc(S(=O)(=O)NC23CC(C#N)(C2)C3)cc1-c1cnc(N)c(-c2cn(C)nc2C)n1 [Example 10, 3-(5-Amino-6-(1,3-dimethyl-1H-pyrazol-4-yl)pyrazin-2-yl)-N-(3-cyanobicyclo[1.1.1]pentan-1-yl)-4-methylbenzenesulfonamide Trifluoroacetate Salt] | ≤ 500 | ≤ 100 | ≤ 100
3 | [2H]C([2H])([2H])c1ccc(S(=O)(=O)NC23CCC(C#N)(C2)C3)cc1-c1cnc(N)c(-c2cnc(C)o2)n1 [Example 66, 3-(5-Amino-6-(2-methyloxazol-5-yl)pyrazin-2-yl)-N-(4-cyanobicyclo[2.1.1]hexan-1-yl)-4-(methyl-d3)benzenesulfonamide trifluoroacetate salt] | ≤ 100 | ≤ 100 | ≤ 100
4 | [2H]C([2H])([2H])c1ccc(S(=O)(=O)NC23CCC(C#N)(C2)C3)cc1-c1cnc(N)c(-c2cnc(N(C)C)nc2)n1 [Example 67, 3-(5-Amino-6-(2-(dimethylamino)pyrimidin-5-yl)pyrazin-2-yl)-N-(4-cyanobicyclo[2.1.1]hexan-1-yl)-4-(methyl-d3)benzenesulfonamide trifluoroacetate salt] | ≤ 100 | ≤ 500 | ≤ 100
5 | [2H]C([2H])([2H])c1ccc(S(=O)(=O)NC23CCN(CC2)C3)cc1-c1cnc(N)c(-c2ccncn2)n1 [Example 95, 3-(5-amino-6-(pyrimidin-4-yl)pyrazin-2-yl)-N-(1-azabicyclo[2.2.1]heptan-4-yl)-4-(methyl-d3)benzenesulfonamide] | ≤ 100 | ≤ 100 | ≤ 100
6 | Cc1ccc(S(=O)(=O)NC23CCC(CO)(C2)C3)cc1-c1cnc(N)c(-c2cn(C)nc2C)n1 [Example 13, 3-(5-Amino-6-(1,3-dimethyl-1H-pyrazol-4-yl)pyrazin-2-yl)-N-(4-(hydroxymethyl)bicyclo[2.1.1]hexan-1-yl)-4-methylbenzenesulfonamide trifluoroacetate salt] | ≤ 500 | ≤ 500 | ≤ 100
7 | Cc1ncc(-c2nc(-c3cc(S(=O)(=O)NC45CC(CO)(C4)C5)ccc3C)cnc2N)s1 [Example 3, 3-(5-Amino-6-(2-methylthiazol-5-yl)pyrazin-2-yl)-N-(3-(hydroxymethyl)bicyclo[1.1.1]pentan-1-yl)-4-methylbenzenesulfonamide trifluoroacetate salt] | ≤ 100 | ≤ 100 | ≤ 100
8 | Cc1ccc(S(=O)(=O)NC23COC(C)(C2)C3)cc1-c1cnc(N)c(-c2cn(C)nc2C)n1 [Example 12, 3-(5-Amino-6-(1,3-dimethyl-1H-pyrazol-4-yl)pyrazin-2-yl)-4-methyl-N-(1-methyl-2-oxabicyclo[2.1.1]hexan-4-yl)benzenesulfonamide trifluoroacetate salt] | ≤ 500 | ≤ 500 | ≤ 100
9 | Cc1ccc(S(=O)(=O)NC23COC(CO)(C2)C3)cc1-c1cnc(N)c(-c2cnc(C3CC3)s2)c1 [Example 89, 3-(6-amino-5-(2-cyclopropylthiazol-5-yl)pyridin-3-yl)-N-(1-(hydroxymethyl)-2-oxabicyclo[2.1.1]hexan-4-yl)-4-methylbenzenesulfonamide] | ≤ 100 | ≤ 500 | ≤ 100
10 | Cc1ccc(S(=O)(=O)NC23CC(CO)(C2)C3)cc1-c1cnc(N)c(-c2cn(C)nc2C)n1 [Example 15, 3-(5-amino-6-(1,3-dimethyl-1H-pyrazol-4-yl)pyrazin-2-yl)-N-(3-(hydroxymethyl)bicyclo[1.1.1]pentan-1-yl)-4-methylbenzenesulfonamide trifluoroacetate salt] | ≤ 500 | ≤ 500 | ≤ 100
